Assay results: patent US5554636A, “N-acylated 4-hydroxphenylamine derivatives with analgesic properties and pharmaceutical compositions containing them” (priority 1995, dated 1996)

How the values were obtained:
mice = experiment: mortality after oral administration; conditions: summary statement
Procedure: (§1) Toxicity studies were based on the measurement of two parameters: mortality and hepatotoxicity.
Mortality was determined by means of the oral administration of 1 g/kg of paracetamol or the test compound (in Suspension K, Bioserve). For this purpose, the number of mice surviving 18 hours after the administration of each compound was counted.

[1] = test system: yeast-induced pyretic response in Sprague-Dawley rats; experiment: antipyretic activity (yeast-induced temperature increase); assay type: in vivo; conditions: oral; for antipyretic effect: at the doses studied
Procedure: Antipyretic activity was determined in Sprague-Dawley rats weighing 130-220 g. The animals were injected subcutaneously with a 15% suspension of yeast dissolved in saline solution (1 mL/100 g body weight). Body temperature was measured by means of a rectal thermistor connected to a Cole-Palmer remote thermometer. The temperature at which the experiment was started was the temperature determined 2 hours after the administration of yeasts. Temperature measurements were subsequently made in animals to which paracetamol (standard) or the test compound was administered orally (Suspension K, Bioserve). The results, expressed as the percentage increase in temperature from the baseline value to that obtained 6 hours after the subcutaneous administration of yeast, are given in FIG. 4.

[2] = solubility remark in hepatotoxicity study; assay type: physicochemical
Procedure: (§2) For the hepatotoxicity study, mice were kept fasted overnight. The following morning, the compounds were administered orally under ether anesthesia. […] Paracetamol was dissolved in 0.5% tragacanth in saline solution. 24 hours after administration of the compounds, blood was withdrawn from the orbital plexus of the mice anesthetized with ether, and placed in heparinized capillary tubes. The samples were centrifuged at 2000 rpm for 10 minutes, and the plasma glutamic-oxaloacetic transaminase (GOT) and glutamicpyruvic transaminase (GPT) levels were determined spectrophotometrically using Sigma kits. The number of animals used in each group is indicated within each column.

[3] = test system: writhes produced by intraperitoneal acetic acid in CD-1 mice; experiment: acetic acid writhing test; assay type: in vivo, CD-1 mice (Charles-River); conditions: oral; for ED50: Mus musculus, 25 min, 0.4% acetic acid i.p. 25 minutes later
Procedure: (§3) Analgesic activity was measured in CD-1 mice (Charles-River) on the basis of the following three methods:
(§4) The third method consists in measuring the number of writhes performed by a mouse as a manifestation of the pain produced by an intraperitoneal injection of 10 mL/kg of 0.4% acetic acid solution. […] Following oral administration of each compound, the mice (groups of 8 or more) received, 25 minutes later, an intraperitoneal injection of 10 mL/kg of 0.4% acetic acid. The number of writhes was counted 5-15 minutes after the injection of acetic acid.

[4] = test system: pain response (hotplate) in CD-1 mice; experiment: hotplate analgesic test; assay type: in vivo, CD-1 mice (Charles-River); conditions: for analgesic activity in hotplate test (words): mice, oral
Procedure: as §3
The second method employed is the hotplate method (Wolfe, G. and MacDonald, A. D., J. Pharmacol. Exp. Ther. 80, 300, 1944). The mouse is placed on a plate at 54° C., and the latency time of withdrawal of a hind foot or a jump is measured. Groups of 10 mice, to which the compounds were administered orally at the doses indicated as abscissae, were subjected to the hotplate test before and at the end of 30 and 60 minutes following administration of the compounds. The mean latency at 30 and 60 minutes minus the baseline latency is plotted as ordinates.

[5] = test system: pain response (tail flick) in CD-1 mice; experiment: tail flick analgesic test; assay type: in vivo, CD-1 mice (Charles-River); conditions: for analgesic activity in tail flick test: mice, oral
Procedure: as §3
In the tail flick method (D'Amour, F. E., Smith, D. L., J. Pharmacol. Exp. Ther. 72, 74, 1941), the tail of each mouse is exposed to a concentrated light beam; when the animal feels pain, it removes its tail abruptly from said beam, and the latency time of this flick response is measured. The compound indicated by each symbol was administered orally to groups of 10 mice at the doses indicated as abscissae. The analgesia was quantified before and 15, 30, 60 and 120 minutes after the administration of each compound. The peak activity (30 minutes) was plotted as the percentage of mice in which the latency time for flicking the tail was at least doubled.

[6] = test system: plasma GPT and GOT transaminase levels; conditions: mouse, in vivo
Procedure: as §1, §2

[7] = test system: pain response in CD-1 mice; experiment: overall analgesic activity (tail flick, hotplate and acetic acid tests); assay type: in vivo, CD-1 mice (Charles-River); conditions: oral
Procedure: as §3, §4

| SMILES | toxicity compared with paracetamol (mice) | antipyretic effect [1] | antipyretic effect ([1]; listed as Example I) | solubility [2] | ED50 [3] | analgesic activity in acetic acid test [3] | analgesic activity in hotplate test (words) [4] | analgesic activity in tail flick test [5] | hepatotoxicity [6] | analgesic profile / analgesic activity [7] | analgesic profile / analgesic activity ([7]; listed as Example I) | ED50 ([4]; Mus musculus, po, read-out: ED50, hotplate test) | ED50 ([5]; Mus musculus, po, read-out: ED50, tail flick test) | ED50 ([1]; Rattus norvegicus, yeast s.c., read-out: ED50, reduction of pyretic response) | analgesic activity in hotplate test (words) ([4]; listed as paracetamol) |
| --- | --- | --- | --- | --- | --- | --- | --- | --- | --- | --- | --- | --- | --- | --- | --- |
| O=C(CN1C(=O)c2ccccc2S1(=O)=O)Nc1ccc(O)cc1 [Example 1, 2-[2,3-Dihydro-3-oxo-1,2-benzisothiazol-2-yl 1,1-dioxide]-N-(4-hydroxyphenyl)acetamide] | much lower toxicity | did not display antipyretic effects | not possessing antipyretic effects | poor solubility | 121 mg/kg | displayed an analgesic effect | did not display activity | did not display activity | lacks hepatotoxicity | analgesic profile identical to that of paracetamol | analgesic activity equivalent to that of paracetamol |  |  |  |  |
| CN1CC[C@]23c4c5ccc(O)c4O[C@H]2[C@@H](O)C=C[C@H]3[C@H]1C5 [Morphine] |  |  |  |  |  | active | active | active |  |  |  | 22.3 mg/kg | 28.5 mg/kg |  |  |
| CC(=O)Nc1ccc(O)cc1 [Paracetamol] |  | reduced the pyretic response in a dose-dependent manner |  |  | 130 mg/kg | effective | minimally active | did not display activity |  |  |  |  |  | 77.7 mg/kg | did not display activity |
